Assay results from US20240317732A1, “A NEW MOLECULAR SCAFFOLD FOR TARGETING HRPN13” (THE UNITED STATES OF AMERICA AS REPRESENTED BY THE …, priority 2021, published 2024).
Blank lines part the entries; values can stand above or below the compound they belong to.

How the values were obtained:
[1] = target: T1, hRpn13 Pru (Homo sapiens (Human), UniProt Q16186); test: Isothermal titration calorimetry (ITC) of hRpn13 Pru binding; conditions: 25° C.
Description: ITC experiments were performed at 25° C. on a MicroCal iTC200 system (Malvern, PA, USA). hRpn13 Pru, XL5, XL5 derivative, or RA190 were prepared in buffer C. One aliquot of 0.5 μL followed by 17 or 18 aliquots of 2.1 μL of 200 μM hRpn13 Pru was injected at 750 r.p.m. into a calorimeter cell (volume […]) that contained 20 μM XL5, XL5 derivative, or RA190. Blank experiments were performed by replacing XL5, XL5 derivative, or RA190 with buffer in the cell and the resulting data subtracted from the experimental data during analyses. The integrated interaction heat values were normalized as a function of protein concentration and the data were fit with MicroCal Origin 7.0-based software implementing the “One Set of Sites” model to yield binding affinity Ka (1/Kd), stoichiometry, and other thermodynamic parameters. Dissociation constants (Kd) as determined by ITC as well as relative binding affinities of selected compounds are presented n Table 1, while additional information on named compounds including structures, synthesis, and characterization is presented in Examples 3-9: […]

[2] = target: T1, hRpn13 Pru; test: 2D NMR (1H,15N HSQC) binding to 15N-labeled hRpn13 Pru; conditions: assessed by ITC and NMR
Source text: We conducted in silico docking screens of commercial libraries containing in total 63 million compounds by using the hRpn13 Pru:hRpn2 structure and hRpn2-binding site of hRpn13 as a binding pocket. Twenty-two potential lead compounds were selected for validation by biophysical assays. hRpn13 W108 is partially exposed when free but buried by hRpn2, enabling tryptophan quenching by differential scanning fluorimetry (DSF at λ350) for assaying binding and this approach was used to screen for compound binding to this site. 20 μM compound (separately for twenty compounds) was incubated with 1 μM hRpn13 Pru and fluorescence emission at 350 nm measured. […] The compounds were separately added at 10-fold molar excess to 20 μM ^15N-labeled hRpn13 Pru and binding assessed at 25° C. by 2D NMR for samples dissolved in NMR buffer (20 mM sodium phosphate, 50 mM NaCl, 2 mM DTT, 10% DMSO-d6 (deuterated DMSO), pH 6.5). […]
For screening by ^1H, ^15N HSQC experiments, small molecule dissolved in DMSO-d6 was added to 20 μM or 250 μM ^15N-labeled hRpn13 Pru at a molar excess of 2-fold (for XL5) or 10-fold (for all compounds tested) in NMR buffer (20 mM sodium phosphate, 50 mM NaCl, 2 mM DTT, 10% DMSO-d6, pH 6.5). […] Three ^13C-half-filtered NOESY experiments were recorded with a 100 ms mixing time on asymmetrically labeled samples dissolved in NMR buffer. […]

[3] = tested on: RPMI 8226 cells; test: MTT cell metabolism / cell viability assay in RPMI 8226; format: cell-based; conditions: RPMI 8226, 48 hours, up to 40 μM
Description: Since previous hRpn13-targeting molecules induce apoptosis in multiple myeloma and colon cancer cells we tested whether XL5 restricts the RPMI 8226 multiple myeloma and HCT116 colon cancer cell lines by measuring metabolism with an MTT (3-(4,5-dimethylthiazol-2-yl)-2,5-diphenyltetrazolium bromide) assay. Experiments were also conducted in parallel with a HCT116 colon cancer cell line in which the exon encoding hRpn13 C88 is deleted, named trRpn13; this cell line expresses a truncated hRpn13 protein with a defective Pru and inability to bind the proteasome28. RPMI 8226 and WT (wild-type) or trRpn13 HCT116 cells seeded at 8,000 and 4,000 cells per well were treated with varying concentrations of XL5 extending to 40 μM and compared to cells incubated with equivalent amounts of DMSO vehicle control.
HCT116 WT or trRpn13 cells were seeded at 4,000 cells/well whereas RPMI 8226 cells were seeded at 8,000 cells/well with RPMI 1640 medium (no phenol red, Thermo Fisher Scientific 11835030) containing 2% fetal bovine serum in 96-well plates. Cells were treated with 0.4% DMSO (as a control) and this concentration was maintained with XL5, XL5-PROTACs XL5-VHL, XL5-VHL-2, XL5-CRBN, or XL5-IAP, and E3 ligands VHL-Ac, thalidomide (Selleckchem, catalog NO. S1193), or IAP-Bz at 10 μM, 20 μM, 30 μM or 40 μM concentration. After 48 hours, 0.35 mg/mL MTT was added for 4 hours of incubation. Stop solution (40% DMF, 10% SDS (W/V), 25 mM HCl, 2.5% acetic acid in H2O) was added to the cells and incubated overnight. Absorbance at 570 nm was measured by using CLARIOstar (BMG LABTECH).

[4] = Reactivity in mouse serum by LC-MS; format: in vitro ADME; conditions: 0.2 μM, room temperature, 24-hour time period
Description: To test for covalent interaction, an hRpn13 Pru sample was incubated with 10-fold molar excess XL5 or DMSO (as a vehicle control) and subjected to liquid chromatography-mass spectrometry (LC-MS). […] To test for general reactivity of XL5 towards exposed cysteines, 40 μM XL5 was incubated at 4° C. for two hours with 2 mM reduced L-glutathione serving as representative of a non-specific interactor with exposed cysteines. XL5-ligated glutathione was detected at only 2% abundance (FIG. 2B). Under identical conditions, 40 μM RA190 reacted with 2 mM reduced L-glutathione to yield products with one or two molecules ligated at 14% or 30% abundance, respectively. We also tested XL5 reactivity by incubating it at 0.2 μM with mouse serum (BioIVT) and monitoring the effect by LC-MS over a 24-hour time period to find only 6% reduction in the unligated compound.
To check for reactivity of XL5 in mouse serum, 0.2 μM XL5 was mixed with mouse serum (BioIVT) and aliquots of the spiked mixture left at room temperature for 0, 4, 8 and 24 hours. For each time point, six samples were extracted using 75% acetonitrile and 0.075% formic acid. The supernatant was transferred to polypropylene injection vials for LC-MS analysis. […]

[5] = target: T1, hRpn13 Pru; test: Differential scanning fluorimetry, tryptophan quenching at 350 nm; format: binding; conditions: 1 μM hRpn13 Pru, 20° C.
Source text: We conducted in silico docking screens of commercial libraries containing in total 63 million compounds by using the hRpn13 Pru:hRpn2 structure and hRpn2-binding site of hRpn13 as a binding pocket. Twenty-two potential lead compounds were selected for validation by biophysical assays. hRpn13 W108 is partially exposed when free but buried by hRpn2, enabling tryptophan quenching by differential scanning fluorimetry (DSF at λ350) for assaying binding and this approach was used to screen for compound binding to this site. 20 μM compound (separately for twenty compounds) was incubated with 1 μM hRpn13 Pru and fluorescence emission at 350 nm measured. […] The compounds were separately added at 10-fold molar excess to 20 μM ^15N-labeled hRpn13 Pru and binding assessed at 25° C. by 2D NMR for samples dissolved in NMR buffer (20 mM sodium phosphate, 50 mM NaCl, 2 mM DTT, 10% DMSO-d6 (deuterated DMSO), pH 6.5). […] XL5 addition caused hRpn13 signals to shift from free state positions to an observable bound state whereas spectral changes were not induced by the other compounds tested. […]
DSF experiments were performed on a PrometheusNT.48 instrument (NanoTemper Technologies, Germany) at 20° C. […] Each sample was loaded into three high sensitivity capillaries (NanoTemper, cat #PR-C006) and the emission of intrinsic tryptophan fluorescence at 350 nm was monitored.

[6] = tested on: hRpn13 / hRpn13-Pru; test: Immunoblot of hRpn13 species in RPMI 8226 cell lysates; format: cell-based, human; conditions: RPMI 8226 WT, 100 nM, 24 hours
Description: HCT116 WT, HCT116 trRpn13, RPMI 8226 or 293T cells were collected and washed with PBS followed by lysing in 1% Triton-TBS lysis buffer (50 mM Tris-HCl, pH 7.5, 150 mM NaCl, 1 mM PMSF) supplemented with protease inhibitor cocktail (Roche). Total protein concentration was determined by bicinchoninic acid (Pierce). Protein lysates were prepared in 1χ LDS (ThermoFisher, NP0007) buffer with 100 mM DTT and heating at 70° C. for 10 min, loaded onto 4-12% Bis-Tris polyacrylamide gels (Life Technologies), subjected to SDS-PAGE and transferred to Invitrolon polyvinylidene difluoride membranes (Life Technologies). The membranes were blocked in Tris-buffered saline with 0.1% Tween-20 (TBST) supplemented with 5% skim milk, incubated with primary antibody, washed in TBST, incubated with secondary antibody and washed extensively in TBST. Pierce™ ECL Western Blotting Substrate (32106; Thermo Fisher Scientific) or Amersham™ ECL™ Primer Western Blotting Detection Reagent (cytiva) was used for antibody signal detection.
To test whether the XL5-PROTACs cause ubiquitination and degradation of hRpn13, lysates from RPMI 8226 (FIG. 5C) cells treated with 40 μM XL5 orXL5-PROTAC compared to DMSO vehicle control were immunoprobed for hRpn13 and β-actin (loading control).

T1 sequence (Q16186 1-150): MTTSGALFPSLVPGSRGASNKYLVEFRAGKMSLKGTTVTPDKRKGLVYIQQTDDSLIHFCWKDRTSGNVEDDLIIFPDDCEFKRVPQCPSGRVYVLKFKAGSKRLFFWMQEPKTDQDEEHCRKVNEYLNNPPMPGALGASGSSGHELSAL

SMILES: O=C1CCC(N2C(=O)c3ccccc3C2=O)C(=O)N1 (centres unmarked) [thalidomide, reference compound]
metabolic activity / cell viability (MTT) [3]: did not affect metabolic activity

SMILES: CC(=O)N[C@H](C(=O)N1C[C@H](O)C[C@H]1C(=O)N[C@@H](C)c1ccc(-c2scnc2C)cc1)C(C)(C)C [VHL-Ac, reference compound]
metabolic activity / cell viability (MTT) [3]: did not affect metabolic activity

SMILES: CC(C)C[C@H](NC(=O)[C@H](CCc1ccccc1)NC(=O)CN1CCOCC1)C(=O)N[C@@H](Cc1ccccc1)C(=O)N[C@@H](CC(C)C)C(=O)[C@@]1(C)CO1 [carfilzomib, reference compound]
hRpn13-Pru level after proteasome inhibitor [6]: reduced levels of hRpn13-Pru

More lines, main results first:

Kd ([1]; 200 μM hRpn13 Pru into 20 μM compound, buffer C): 1.74 ± 0.35 µM
change of affinity for hRpn13 Pru relative to XL5 [2]: little effect
SMILES: CNc1ccc(C(=O)Nc2cccc(/C=C(\C#N)C(=O)Nc3ccccc3C(=O)O)c2)cc1 [XL24]

reduction in the unligated compound in mouse serum [4]: 6%
SMILES: Cc1ccc(C(=O)Nc2cccc(/C=C(\C#N)C(=O)Nc3ccccc3C(=O)O)c2)cc1 [XL5]

binding detected by ITC [1]: did not detect binding
SMILES: Cl.N[C@@H](Cc1ccccc1)C(=O)N1C/C(=C/c2ccc(Cl)c(Cl)c2)C(=O)/C(=C\c2ccc(Cl)c(Cl)c2)C1 [RA190, reference compound]
tryptophan fluorescence emission quenching at 350 nm [5]: titration-dependent reduction in λ350 signal
